Target: almond β-glucosidase
Assay: glycosidase inhibition assay with p-nitrophenyl substrate, commercial (Sigma) enzyme
Format: biochemical, Prunus dulcis

NC1=NC[C@@H](CCNC(=O)c2cc3c(cn2)[nH]c2ccccc23)N1 [compound 1, (+)-(R)-Tiruchanduramine]
IC50: 1 mM

Reference: publication PMC8880061, “Synthesis of (+)-(R)-Tiruchanduramine” (Molecules, 2022)
